Like-named read-outs stand apart in the source and are kept apart here. Where only a bound is given, the exact number is not on record here.

The target in assay [1] is T1, human mPGES-1 (Homo sapiens, UniProt O14684).
T1 construct: made in house; host or cells: Chinese hamster ovary-derived cells (FreeStyle CHO-S), transient transfection of pcDNA3.1(+)/human mPGES-1; microsome fraction
T1 sequence (O14684 1-152): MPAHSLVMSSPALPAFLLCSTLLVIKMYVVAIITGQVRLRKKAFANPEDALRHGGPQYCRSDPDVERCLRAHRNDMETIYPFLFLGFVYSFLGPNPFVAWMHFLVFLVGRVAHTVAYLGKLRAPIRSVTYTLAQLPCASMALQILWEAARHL
The assay can be described thus: Evaluation of human mPGES-1 enzyme inhibitory activity (HTRF measurement of PGE2). Format: biochemical. The note with it: IC50 value; microsome fraction of CHO-S cells expressing human mPGES-1, PGH2 substrate, PGE2 by HTRF; read-out: humans mPGES-1 enzyme inhibitory activity. The method in brief: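 Enzyme source was a microsome fraction from CHO-S cells transfected with human mPGES-1, diluted to 5 μg/mL protein in reduced GSH (12.5 mmol/L KPB), preincubated with compound for 10 min at room temperature with 2% final DMSO. Reaction started with PGH2 and run 45 seconds at room temperature. PGE2 measured by HTRF.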
On the technique in general: In TR-FRET formats the signal depends on donor and acceptor labels being close together.

Assay [2] concerns A549 cell. Nature of the assay: Evaluation of PGE2 production inhibitory action using A549 cell (IL-1β stimulated). Type of assay: cell-based, human. The method in brief:
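A549 cells (human lung cancer) in F-12K with 2% FBS were preincubated with test article for 30 min, then stimulated with IL-1β (1 ng/mL final) for 18 hr at 37 °C; 0.5% DMSO final. Supernatant PGE2 was measured by HTRF against a standard curve; inhibition is relative to vehicle and unstimulated blank wells.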

The mark [3] stands for this setting: Homo sapiens, A549, 18 h, IC50 value, A549 cell, recombinant IL-1β 1 ng/mL, 18 hr, PGE2 in supernatant, read-out: cell PGE2 production inhibitory activity.
[4] abbreviates: Homo sapiens, A549, A549 cell, recombinant human IL-1β stimulation, read-out: cell PGE2 production inhibitory activity (IC50 value).
The mark [5] stands for this setting: A549 cell, recombinant human IL-1β stimulation, read-out: cell PGE2 production inhibitory activity (IC50 value).

For the compound `CCOc1ccc(-c2nc(O)nc(-c3cc(CNC(=O)C4(OC)CCCC4)ccc3Cl)n2)cn1` [Example 37], the IC50 stood at 3 nM in assay [1] and 170 nM in assay [2] (setting [3]).

In the case of `CCC[C@@H](C)Oc1ccc(-c2nc(O)nc(-c3cc(CNC(=O)C(CC)(CC)CF)ccc3Cl)n2)cn1` [Example 124], the figures for the IC50 in assay [1] and in assay [2] (setting [4]) were 2.6 nM and 2.5 nM, respectively.

As to `CCC[C@@H](C)Oc1ccc(-c2nc(O)nc(-c3cc(CNC(=O)C(CC)(OC)C(F)(F)F)ccc3Cl)n2)cn1` (single isomer, unassigned) [Example 143], the IC50 in assay [1] stood at 3.9 nM; in assay [2] (setting [5]), 1.6 nM.

As to `CCOc1ccc(-c2nc(O)nc(-c3cc(CNC(=O)C4(C(F)(F)F)CCCCC4)ccc3Cl)n2)cn1` [Example 33], the IC50 worked out at 0.8 nM in assay [1] and 11 nM in assay [2] (setting [3]).

With `CCC1(C(=O)NCc2ccc(Cl)c(-c3nc(O)nc(-c4cccc(C(C)C)c4)n3)c2)CC1` [Example 8], the IC50 was determined as 0.7 nM in assay [1] and 14 nM in assay [2] (setting [3]).

In the case of `CCCOc1ccc(-c2nc(O)nc(-c3cc(CNC(=O)C4(C(F)(F)F)CCCC4)ccc3Cl)n2)cn1` [Example 45], the IC50 turned out to be 1.3 nM in assay [1] and 8 nM in assay [2] (setting [3]).

As for `CCC[C@@H](C)Oc1ccc(-c2nc(O)nc(-c3cc(CNC(=O)[C@@](C)(OC)C(F)(F)F)ccc3Cl)n2)cn1` [Example 80], the IC50 amounted to 2.7 nM in assay [1] and 2 nM in assay [2] (setting [4]).

On to `CCC(CC)(C(=O)NCc1ccc(Cl)c(-c2nc(O)nc(-c3ccc(Cl)c(C(C)C)c3)n2)c1)C(F)F` [Example 119], for which the figures for the IC50 in assay [1] and in assay [2] (setting [4]) were 1.8 nM and 3 nM, respectively.

`COC1(C(=O)NCc2ccc(Cl)c(-c3nc(O)nc(-c4ccc(Cl)c(C(C)C)c4)n3)c2)CCCCC1` [Example 57]: the IC50 in assay [1] was 2.9 nM; in assay [2] (setting [3]), 4.5 nM.

`CCC[C@H](C)Oc1ccc(-c2nc(O)nc(-c3cc(CNC(=O)C(CC)(CC)C(F)F)ccc3Cl)n2)cn1` [Example 130]: the IC50 stood at 3.8 nM in assay [1] and 1.2 nM in assay [2] (setting [4]).

Regarding `COc1ccc(-c2nc(O)nc(-c3cc(CNC(=O)C4(OC)CCCCC4)ccc3Cl)n2)cn1` [Example 28], the IC50 in assay [1] was found to be 1.8 nM; in assay [2] (setting [3]) it was 100 nM.

For `CCC(CC)(CF)C(=O)NCc1ccc(Cl)c(-c2nc(O)nc(-c3ccc(Cl)c(C(C)C)c3)n2)c1` [Example 115], the IC50 came to 1.3 nM in assay [1] and 6.6 nM in assay [2] (setting [4]).

Regarding `CCC[C@H](C)Oc1ccc(-c2nc(O)nc(-c3cc(CNC(=O)C4(C(F)F)CCCC4)ccc3Cl)n2)cn1` [Example 110], the figures for the IC50 in assay [1] and in assay [2] (setting [4]) were 3.7 nM and 2.7 nM, respectively.

For `CC(C)c1cccc(-c2nc(O)nc(-c3cc(CNC(=O)C4(F)CCCCC4)ccc3Cl)n2)c1` [Example 39], the results for the IC50 in assay [1] and in assay [2] (setting [3]) were 3.9 nM and 57 nM, respectively.

As for `COc1ccc(-c2nc(O)nc(-c3cc(CNC(=O)C4(C(F)(F)F)CCCCC4)ccc3Cl)n2)cn1` [Example 30], the IC50 in assay [1] was 0.8 nM; in assay [2] (setting [3]) it was 33 nM.

Regarding `CCCc1cc(-c2nc(O)nc(-c3cc(CNC(=O)C(C)(C)C(F)(F)F)ccc3Cl)n2)cnc1OCC` [Example 73], the IC50 in assay [1] was 4.2 nM; in assay [2] (setting [4]), greater than 30 nM. In addition, in assay [2] (Homo sapiens, A549 cell, IL-1β stimulation, at the highest concentration given (0.03 μM), read-out: cell PGE2 production inhibitory activity (%), printed in parentheses after the > bound), the inhibition at 0.03 µM amounted to 47%.

As for `CCC(OC)(C(=O)NCc1ccc(Cl)c(-c2nc(O)nc(-c3cccc(C(C)C)c3)n2)c1)C(F)(F)F` (single isomer, unassigned) [Example 134], the IC50 stood at 1.7 nM in assay [1] and 19 nM in assay [2] (setting [5]).

Take `CCC[C@@H](C)Oc1ccc(-c2nc(O)nc(-c3cc(CNC(=O)C4(C(F)F)CCCCC4)ccc3Cl)n2)cn1` [Example 127]: the IC50 in assay [1] was 2.4 nM; in assay [2] (setting [4]), 0.9 nM.

With `CC1(c2cccc(-c3nc(O)nc(-c4cc(CNC(=O)C5(C(F)(F)F)CCCCC5)ccc4Cl)n3)c2)CC1` [Example 64], the values for the IC50 in assay [1] and in assay [2] (setting [4]) were 1.6 nM and 5.3 nM, respectively.

Regarding `CO[C@](C)(C(=O)NCc1ccc(Cl)c(-c2nc(O)nc(-c3ccc(Cl)c(C(C)C)c3)n2)c1)C(F)(F)F` [Example 56], the IC50 was found to be 0.7 nM in assay [1] and 2.6 nM in assay [2] (setting [3]).

Take `CC(C)(C)c1cccc(-c2nc(O)nc(-c3cc(CNC(=O)C4(CF)CCCCCC4)ccc3Cl)n2)c1` [Example 112]: the results for the IC50 in assay [1] and in assay [2] (setting [4]) were 3.3 nM and 24 nM, respectively.

Regarding `CCCCC(C)(C)C(=O)NCc1ccc(Cl)c(-c2nc(O)nc(-c3ccc(OCCC)nc3)n2)c1` [Example 47], the IC50 in assay [1] came to 2.1 nM; in assay [2] (setting [3]), 100 nM.

In the case of `CC(C)c1cc(-c2nc(O)nc(-c3cc(CNC(=O)C(C)(C)C(F)(F)F)ccc3Cl)n2)cc(C(C)C)c1` [Example 18], the IC50 worked out at 5.3 nM in assay [1] and 260 nM in assay [2] (setting [3]).

As to `CCOc1ccc(-c2nc(O)nc(-c3cc(CNC(=O)C(C)(C)C(F)(F)F)ccc3Cl)n2)cn1` [Example 27], the IC50 in assay [1] was 0.7 nM; in assay [2] (setting [3]) it was 79 nM.

As for `O=C(NCc1ccc(Cl)c(-c2nc(O)nc(-c3ccc(OC4CCC4)nc3)n2)c1)C1(C(F)(F)F)CCCCC1` [Example 60], the IC50 in assay [1] amounted to 0.4 nM; in assay [2] (setting [3]) it was 8.3 nM.

With `CCOCCCOc1ccc(-c2nc(O)nc(-c3cc(CNC(=O)C4(C(F)(F)F)CCCCC4)ccc3Cl)n2)cn1` [Example 68], the IC50 in assay [1] was found to be 0.6 nM; in assay [2] (setting [4]), 11 nM.

With `CCC[C@@H](C)Oc1ccc(-c2nc(O)nc(-c3cc(CNC(=O)C4(C(F)(F)F)CCCC4)ccc3Cl)n2)cn1` [Example 125], the IC50 in assay [1] came to 6 nM; in assay [2] (setting [4]), 1.6 nM.

Consider `CC(C)c1cc(-c2nc(O)nc(-c3cc(CNC(=O)C4(CF)CCCCCC4)ccc3Cl)n2)ccc1Cl` [Example 114], for which the results for the IC50 in assay [1] and in assay [2] (setting [4]) were 3.1 nM and 13 nM, respectively.

`CCCCCCOc1ccc(-c2nc(O)nc(-c3cc(CNC(=O)C(C)(C)CF)ccc3Cl)n2)cn1` [Example 84]: the IC50 in assay [1] worked out at 2 nM; in assay [2] (setting [4]), 6 nM.

With `CC(C)c1cccc(-c2nc(O)nc(-c3cc(CNC(=O)C4(CF)CCCCC4)ccc3Cl)n2)c1` [Example 98], the IC50 in assay [1] was 1.2 nM; in assay [2] (setting [4]) it was 43 nM.

As to `CC(C)c1cc(-c2nc(O)nc(-c3cc(CNC(=O)C4(CF)CCCC4)ccc3Cl)n2)ccc1Cl` [Example 95], the IC50 in assay [1] amounted to 1.9 nM; in assay [2] (setting [4]), 17 nM.

`CCC[C@@H](C)Oc1ccc(-c2nc(O)nc(-c3cc(CNC(=O)C(CC)(CC)C(F)F)ccc3Cl)n2)cn1` [Example 123]: the IC50 came to 4 nM in assay [1] and 1.5 nM in assay [2] (setting [4]).

`CCCOc1ccc(-c2nc(O)nc(-c3cc(CNC(=O)C(C)(C)C(F)(F)F)ccc3Cl)n2)cc1C(C)C` [Example 4]: the IC50 came out at 12 nM in assay [1] and 2.9 nM in assay [2] (setting [3]).

As for `COCC1(C(=O)NCc2ccc(Cl)c(-c3nc(O)nc(-c4cccc(C(C)C)c4)n3)c2)CC1` [Example 13], the IC50 in assay [1] amounted to 21 nM; in assay [2] (setting [3]), 1000 nM.

Turning to `CC(C)(C)c1cccc(-c2nc(O)nc(-c3cc(CNC(=O)C4(CF)CCCC4)ccc3Cl)n2)c1` [Example 93], the IC50 came to 1.3 nM in assay [1] and 30 nM in assay [2] (setting [4]).

In the case of `COC(C)(C)c1cccc(-c2nc(O)nc(-c3cc(CNC(=O)C(C)(C)C(F)(F)F)ccc3Cl)n2)c1` [Example 44], the IC50 amounted to 3.6 nM in assay [1] and 26 nM in assay [2] (setting [3]).

As for `CC1(c2cccc(-c3nc(O)nc(-c4cc(CNC(=O)C5(CF)CCCC5)ccc4Cl)n3)c2)CC1` [Example 94], the IC50 in assay [1] stood at 1 nM; in assay [2] (setting [4]), 59 nM.

`CC(C)(C)c1cccc(-c2nc(O)nc(-c3cc(CNC(=O)C(C)(C(F)(F)F)C(F)(F)F)ccc3Cl)n2)c1` [Example 91]: the IC50 in assay [1] is 4.6 nM; in assay [2] (setting [4]) it was 4 nM.

In the case of `COc1ccc(-c2nc(O)nc(-c3cc(CNC(=O)C(C)(C)C(F)(F)F)ccc3Cl)n2)cn1` [Example 26], the IC50 is 0.7 nM in assay [1] and 260 nM in assay [2] (setting [3]).

`CCC[C@@H](C)Oc1ccc(-c2nc(O)nc(-c3cc(CNC(=O)C(C)(C)OC)ccc3Cl)n2)cn1` [Example 78]: the figures for the IC50 in assay [1] and in assay [2] (setting [4]) were 1.2 nM and 9.2 nM, respectively.

For `CC1(c2cccc(-c3nc(O)nc(-c4cc(CNC(=O)C(C)(C(F)(F)F)C(F)(F)F)ccc4Cl)n3)c2)CC1` [Example 89], the IC50 in assay [1] came out at 3.7 nM; in assay [2] (setting [4]), 2.5 nM.

As for `CC1(c2cccc(-c3nc(O)nc(-c4cc(CNC(=O)C5(C(F)F)CCCCCC5)ccc4Cl)n3)c2)CC1` [Example 122], the IC50 in assay [1] turned out to be 1.8 nM; in assay [2] (setting [4]), 19 nM.

Consider `CC1(c2cccc(-c3nc(O)nc(-c4cc(CNC(=O)C5(CF)CCCCC5)ccc4Cl)n3)c2)CC1` [Example 100], for which the IC50 was 0.9 nM in assay [1] and 43 nM in assay [2] (setting [4]).

On to `CCCC(C)(C)C(=O)NCc1ccc(Cl)c(-c2nc(O)nc(-c3cccc(C(C)C)c3)n2)c1` [Example 7], for which the IC50 in assay [1] was 1 nM; in assay [2] (setting [3]) it was 68 nM.

For the origin of these results see patent publication US12492182B2, “Hydroxytriazine compounds and pharmaceutical use thereof” (Japan Tobacco Inc., priority 2015, dated 2025).
